Common to all, as to assay type: functional
In one test the test system is Moraxella catarrhalis. The test is described as follows: Antimicrobial activity against Moraxella catarrhalis.
A further test deals with Haemophilus influenzae. Nature of the test: Antimicrobial activity against Haemophilus influenzae.
The next test deals with Enterococcus faecium. The test is described as follows: Antimicrobial activity against Enterococcus faecium UC12712.
For a further test, the system named is Streptococcus pneumoniae. Nature of the test: Antimicrobial activity against Streptococcus pneumoniae.
The next test deals with Staphylococcus aureus. Nature of the test: Antimicrobial activity against Staphylococcus aureus.

≈ marks a conversion by molar mass, not a printed value.

For the molecule `CC(=O)NC[C@H]1CN(c2ccc(N3C=CS(=O)(=O)CC3)c(F)c2)C(=O)O1`, the MIC was 2 µg/mL (≈ 5.22 µM) against Moraxella catarrhalis; 4 µg/mL (≈ 10.4 µM) against Haemophilus influenzae; 2 µg/mL (≈ 5.22 µM) in the test with Enterococcus faecium; 0.5 µg/mL (≈ 1.3 µM) in the test on Streptococcus pneumoniae; 4 µg/mL (≈ 10.4 µM) against Staphylococcus aureus.

With `CC(=O)NC[C@H]1CN(c2ccc(C3CCS(=O)(=O)CC3)c(F)c2)C(=O)O1`, the MIC turned out to be 2 µg/mL (≈ 5.2 µM) in the test with Moraxella catarrhalis; 4 µg/mL (≈ 10.4 µM) against Haemophilus influenzae; 2 µg/mL (≈ 5.2 µM) against Enterococcus faecium; 0.5 µg/mL (≈ 1.3 µM) against Streptococcus pneumoniae; 2 µg/mL (≈ 5.2 µM) against Staphylococcus aureus.

Turning to `O=C1O[C@@H](C/N=C(/S)C(F)F)CN1c1cc(F)c(N2C=CS(=O)(=O)CC2)c(F)c1`, the MIC against Moraxella catarrhalis was determined as 2 µg/mL (≈ 4.41 µM); in the test on Haemophilus influenzae, 4 µg/mL (≈ 8.82 µM); with Enterococcus faecium, 0.25 µg/mL (≈ 0.551 µM); in the test on Streptococcus pneumoniae, 0.25 µg/mL (≈ 0.551 µM); in the test with Staphylococcus aureus it was 1 µg/mL (≈ 2.21 µM).

Take `O=C1O[C@@H](C/N=C(/S)C(F)F)CN1c1cc(F)c(C2C=CS(=O)(=O)CC2)c(F)c1` (stereo partly drawn): the MIC worked out at 4 µg/mL (≈ 8.84 µM) against Moraxella catarrhalis; 16 µg/mL (≈ 35.4 µM) in the test on Haemophilus influenzae; 2 µg/mL (≈ 4.42 µM) in the test on Enterococcus faecium; 0.5 µg/mL (≈ 1.11 µM) against Streptococcus pneumoniae; 1 µg/mL (≈ 2.21 µM) in the test with Staphylococcus aureus.

Take `O=C(NC[C@H]1CN(c2ccc(C3C=CS(=O)(=O)CC3)c(F)c2)C(=O)O1)C(Cl)Cl` (stereo partly drawn): the MIC was 2 µg/mL (≈ 4.43 µM) against Moraxella catarrhalis; 4 µg/mL (≈ 8.86 µM) with Haemophilus influenzae; 2 µg/mL (≈ 4.43 µM) in the test on Enterococcus faecium; 0.5 µg/mL (≈ 1.11 µM) against Streptococcus pneumoniae; 2 µg/mL (≈ 4.43 µM) in the test on Staphylococcus aureus.

As for `O=C1O[C@@H](C/N=C(/S)C(F)F)CN1c1ccc(N2C=CS(=O)(=O)CC2)c(F)c1`, the MIC with Moraxella catarrhalis was found to be 4 µg/mL (≈ 9.19 µM); in the test on Haemophilus influenzae it was 4 µg/mL (≈ 9.19 µM); with Enterococcus faecium, 1 µg/mL (≈ 2.3 µM); in the test on Streptococcus pneumoniae, 0.5 µg/mL (≈ 1.15 µM); against Staphylococcus aureus, 1 µg/mL (≈ 2.3 µM).

With `O=C(NC[C@H]1CN(c2ccc(N3C=CS(=O)(=O)CC3)cc2)C(=O)O1)C(Cl)Cl`, the MIC came to 2 µg/mL (≈ 4.61 µM) against Moraxella catarrhalis; 2 µg/mL (≈ 4.61 µM) against Haemophilus influenzae; 2 µg/mL (≈ 4.61 µM) with Enterococcus faecium; 0.5 µg/mL (≈ 1.15 µM) with Streptococcus pneumoniae; 4 µg/mL (≈ 9.21 µM) against Staphylococcus aureus.

For the molecule `O=C(NC[C@H]1CN(c2ccc(N3C=CS(=O)(=O)CC3)c(F)c2)C(=O)O1)C(F)F`, the MIC against Moraxella catarrhalis worked out at 4 µg/mL (≈ 9.54 µM); with Haemophilus influenzae, 4 µg/mL (≈ 9.54 µM); in the test on Enterococcus faecium it was 2 µg/mL (≈ 4.77 µM); in the test on Streptococcus pneumoniae, 0.5 µg/mL (≈ 1.19 µM); in the test with Staphylococcus aureus it was 4 µg/mL (≈ 9.54 µM).

As to `O=C1O[C@@H](C/N=C(/S)C(F)F)CN1c1ccc(C2C=CS(=O)(=O)CC2)c(F)c1` (stereo partly drawn), the MIC is 2 µg/mL (≈ 4.6 µM) against Moraxella catarrhalis; 8 µg/mL (≈ 18.4 µM) in the test with Haemophilus influenzae; 1 µg/mL (≈ 2.3 µM) in the test on Enterococcus faecium; 0.5 µg/mL (≈ 1.15 µM) against Streptococcus pneumoniae; 2 µg/mL (≈ 4.6 µM) in the test with Staphylococcus aureus.

With `O=C(NC[C@H]1CN(c2ccc(N3C=CS(=O)(=O)CC3)c(F)c2)C(=O)O1)C(Cl)Cl`, the MIC against Moraxella catarrhalis is 2 µg/mL (≈ 4.42 µM); in the test on Haemophilus influenzae, 2 µg/mL (≈ 4.42 µM); in the test on Enterococcus faecium, 1 µg/mL (≈ 2.21 µM); in the test on Streptococcus pneumoniae, 0.5 µg/mL (≈ 1.11 µM); in the test with Staphylococcus aureus, 2 µg/mL (≈ 4.42 µM).

As for `O=C(NC[C@H]1CN(c2cc(F)c(N3C=CS(=O)(=O)CC3)c(F)c2)C(=O)O1)C(Cl)Cl`, the MIC against Moraxella catarrhalis is 4 µg/mL (≈ 8.51 µM); in the test with Haemophilus influenzae, 4 µg/mL (≈ 8.51 µM); with Enterococcus faecium, 1 µg/mL (≈ 2.13 µM); against Streptococcus pneumoniae it was 0.5 µg/mL (≈ 1.06 µM); against Staphylococcus aureus, 4 µg/mL (≈ 8.51 µM).

For `CC(=O)NC[C@H]1CN(c2cc(F)c(N3CCS(=O)(=O)CC3)c(F)c2)C(=O)O1`, the MIC worked out at 4 µg/mL (≈ 9.92 µM) in the test on Moraxella catarrhalis; 4 µg/mL (≈ 9.92 µM) against Haemophilus influenzae; 2 µg/mL (≈ 4.96 µM) with Enterococcus faecium; 1 µg/mL (≈ 2.48 µM) with Streptococcus pneumoniae; 2 µg/mL (≈ 4.96 µM) against Staphylococcus aureus.

Regarding `O=C(NC[C@H]1CN(c2ccc(C3C=CS(=O)(=O)CC3)c(F)c2)C(=O)O1)C(F)F` (stereo partly drawn), the MIC in the test with Moraxella catarrhalis came out at 4 µg/mL (≈ 9.56 µM); in the test with Haemophilus influenzae, 4 µg/mL (≈ 9.56 µM); in the test with Enterococcus faecium, 2 µg/mL (≈ 4.78 µM); in the test with Streptococcus pneumoniae, 1 µg/mL (≈ 2.39 µM); in the test on Staphylococcus aureus it was 2 µg/mL (≈ 4.78 µM).

For the molecule `O=C1O[C@@H](C/N=C(/S)C(F)F)CN1c1ccc(N2C=CS(=O)(=O)CC2)cc1`, the MIC came out at 4 µg/mL (≈ 9.58 µM) with Moraxella catarrhalis; 4 µg/mL (≈ 9.58 µM) in the test with Haemophilus influenzae; 1 µg/mL (≈ 2.4 µM) in the test on Enterococcus faecium; 0.5 µg/mL (≈ 1.2 µM) against Streptococcus pneumoniae; 2 µg/mL (≈ 4.79 µM) against Staphylococcus aureus.

In the case of `O=C(NC[C@H]1CN(c2cc(F)c(N3C=CS(=O)(=O)CC3)c(F)c2)C(=O)O1)C(F)F`, the MIC in the test with Moraxella catarrhalis came out at 4 µg/mL (≈ 9.15 µM); in the test with Haemophilus influenzae, 4 µg/mL (≈ 9.15 µM); in the test on Enterococcus faecium it was 1 µg/mL (≈ 2.29 µM); in the test on Streptococcus pneumoniae it was 0.5 µg/mL (≈ 1.14 µM); against Staphylococcus aureus, 4 µg/mL (≈ 9.15 µM).

Take `O=C(NC[C@H]1CN(c2ccc(C3C=CS(=O)(=O)CC3)cc2)C(=O)O1)C(F)F` (stereo partly drawn): the MIC is 4 µg/mL (≈ 9.99 µM) in the test with Moraxella catarrhalis; 8 µg/mL (≈ 20 µM) against Haemophilus influenzae; 4 µg/mL (≈ 9.99 µM) against Enterococcus faecium; 1 µg/mL (≈ 2.5 µM) against Streptococcus pneumoniae; 4 µg/mL (≈ 9.99 µM) with Staphylococcus aureus.

Consider `O=C(NC[C@H]1CN(c2cc(F)c(C3C=CS(=O)(=O)CC3)c(F)c2)C(=O)O1)C(Cl)Cl` (stereo partly drawn), for which the MIC against Moraxella catarrhalis turned out to be 4 µg/mL (≈ 8.52 µM); against Haemophilus influenzae, 8 µg/mL (≈ 17 µM); in the test on Enterococcus faecium it was 2 µg/mL (≈ 4.26 µM); against Streptococcus pneumoniae, 0.5 µg/mL (≈ 1.07 µM); in the test with Staphylococcus aureus it was 2 µg/mL (≈ 4.26 µM).

With `CC(=O)NC[C@H]1CN(c2cc(F)c(C3C=CS(=O)(=O)CC3)c(F)c2)C(=O)O1` (stereo partly drawn), the MIC in the test with Moraxella catarrhalis came to 8 µg/mL (≈ 20 µM); in the test with Haemophilus influenzae, 8 µg/mL (≈ 20 µM); in the test on Enterococcus faecium it was 2 µg/mL (≈ 4.99 µM); against Streptococcus pneumoniae it was 1 µg/mL (≈ 2.5 µM); in the test with Staphylococcus aureus it was 4 µg/mL (≈ 9.99 µM).

Regarding `CC(=O)NC[C@H]1CN(c2ccc(C3C=CS(=O)(=O)CC3)cc2)C(=O)O1` (stereo partly drawn), the MIC with Moraxella catarrhalis worked out at 8 µg/mL (≈ 22 µM); against Haemophilus influenzae it was 8 µg/mL (≈ 22 µM); in the test with Enterococcus faecium, 4 µg/mL (≈ 11 µM); against Streptococcus pneumoniae, 1 µg/mL (≈ 2.74 µM); in the test on Staphylococcus aureus it was 4 µg/mL (≈ 11 µM).

Regarding `O=C(NC[C@H]1CN(c2cc(F)c(C3C=CS(=O)(=O)CC3)c(F)c2)C(=O)O1)C(F)F` (stereo partly drawn), the MIC worked out at 8 µg/mL (≈ 18.3 µM) with Moraxella catarrhalis; 8 µg/mL (≈ 18.3 µM) against Haemophilus influenzae; 2 µg/mL (≈ 4.58 µM) against Enterococcus faecium; 1 µg/mL (≈ 2.29 µM) with Streptococcus pneumoniae; 2 µg/mL (≈ 4.58 µM) against Staphylococcus aureus.

For the molecule `O=C(NC[C@H]1CN(c2ccc(C3C=CS(=O)(=O)CC3)cc2)C(=O)O1)C(Cl)Cl` (stereo partly drawn), the MIC in the test with Moraxella catarrhalis was determined as 4 µg/mL (≈ 9.23 µM); with Haemophilus influenzae, 4 µg/mL (≈ 9.23 µM); in the test with Enterococcus faecium, 2 µg/mL (≈ 4.62 µM); with Streptococcus pneumoniae, 0.5 µg/mL (≈ 1.15 µM); against Staphylococcus aureus, 2 µg/mL (≈ 4.62 µM).

In the case of `O=C(NC[C@H]1CN(c2ccc(N3C=CS(=O)(=O)CC3)cc2)C(=O)O1)C(F)F`, the MIC was 4 µg/mL (≈ 9.97 µM) with Moraxella catarrhalis; 8 µg/mL (≈ 19.9 µM) with Haemophilus influenzae; 2 µg/mL (≈ 4.98 µM) in the test on Enterococcus faecium; 1 µg/mL (≈ 2.49 µM) against Streptococcus pneumoniae; 4 µg/mL (≈ 9.97 µM) against Staphylococcus aureus.

For `O=C1O[C@@H](C/N=C(/S)C(F)F)CN1c1ccc(C2C=CS(=O)(=O)CC2)cc1` (stereo partly drawn), the MIC against Moraxella catarrhalis turned out to be 4 µg/mL (≈ 9.6 µM); against Haemophilus influenzae, 8 µg/mL (≈ 19.2 µM); against Enterococcus faecium it was 2 µg/mL (≈ 4.8 µM); in the test with Streptococcus pneumoniae, 0.5 µg/mL (≈ 1.2 µM); against Staphylococcus aureus it was 2 µg/mL (≈ 4.8 µM).

Regarding `CC(=O)NC[C@H]1CN(c2ccc(N3CCOCC3)c(F)c2)C(=O)O1` [LINEZOLID], the MIC with Moraxella catarrhalis amounted to 8 µg/mL (≈ 23.7 µM); against Haemophilus influenzae, 16 µg/mL (≈ 47.4 µM); against Enterococcus faecium, 4 µg/mL (≈ 11.9 µM).

Turning to `CC(=O)NC[C@H]1CN(c2cc(F)c(N3C=CS(=O)(=O)CC3)c(F)c2)C(=O)O1`, the MIC stood at 4 µg/mL (≈ 9.97 µM) against Moraxella catarrhalis; 8 µg/mL (≈ 19.9 µM) in the test on Haemophilus influenzae; 1 µg/mL (≈ 2.49 µM) in the test on Enterococcus faecium; 0.5 µg/mL (≈ 1.25 µM) with Streptococcus pneumoniae; 2 µg/mL (≈ 4.98 µM) in the test on Staphylococcus aureus.

As to `CC(=O)NC[C@H]1CN(c2ccc(C3C=CS(=O)(=O)CC3)c(F)c2)C(=O)O1` (stereo partly drawn), the MIC came to 2 µg/mL (≈ 5.23 µM) against Moraxella catarrhalis; 8 µg/mL (≈ 20.9 µM) with Haemophilus influenzae; 2 µg/mL (≈ 5.23 µM) in the test on Enterococcus faecium; 1 µg/mL (≈ 2.61 µM) in the test with Streptococcus pneumoniae; 4 µg/mL (≈ 10.5 µM) against Staphylococcus aureus.

(Values after ChEMBL document CHEMBL1138099, “Synthesis and structure-activity studies of antibacterial oxazolidinones containing dihydrothiopyran or dihydrothiazine C-rings” (2006).)
